Assay results taken from US20100311714A1, “1H-IMIDAZO[4,5-c]QUINOLINONE COMPOUNDS” (priority 2009, published 2010).
Read-outs that look alike come from different tables or passages of the source.

Key:
mTOR = target: T1, mTOR (Homo sapiens, UniProt P42345); assay: Biochemical assay for m-TOR by TR-FRET
T1 construct: purchased Invitrogen Corporation (Carlsbad/Calif., USA) PV4753
Method in brief: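 mTOR (0.5 nM) phosphorylates GFP-4EBP1 (400 nM) with 8 μM ATP at rt in 50 mM HEPES pH 7.5, 10 mM MnCl2, 50 mM NaCl, 1 mM EGTA, 1 mM DTT; compounds 0.003–10 μM final. EDTA stop with Tb-anti-p4EBP1[pT46] antibody (0.5 nM); TR-FRET read after 15 min against no-enzyme and vehicle controls.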

[1] = Parallel Artificial Membrane Permeability Assay (PAMPA) at pH 6.8; type: physicochemical
Method in brief: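 Reported as log Pe, membrane permeability was determined by parallel artificial membrane assay at pH 6.8 per Wohnsland–Faller.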

PI3K beta = target: T2, PI3K beta (Homo sapiens, UniProt P42338); assay: PI3K beta kinase assay (Kinase-Glo luminescence); type: biochemical
T2 construct: for the full-length p110-b subunit are generated and fused by overlapping PCR; His tag (C); made in house; host or cells: baculovirus BV949; Tn5 (Trichoplusia ni) or TiniPro insect cells
Method in brief: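 Kinase-Glo luminescence read out ATP left after a 60-min room-temperature reaction, started with ATP (1 μM final) on 25 nM His-tagged p85 iSH2–p110β (BV949) plus 10 μg/mL PI substrate in pH 7.5 Tris buffer. Percent inhibition at eight concentrations was fitted to a four-parameter logistic model for IC50.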

T2 sequence (P42338 with tags, fused parts or gaps limits assumed): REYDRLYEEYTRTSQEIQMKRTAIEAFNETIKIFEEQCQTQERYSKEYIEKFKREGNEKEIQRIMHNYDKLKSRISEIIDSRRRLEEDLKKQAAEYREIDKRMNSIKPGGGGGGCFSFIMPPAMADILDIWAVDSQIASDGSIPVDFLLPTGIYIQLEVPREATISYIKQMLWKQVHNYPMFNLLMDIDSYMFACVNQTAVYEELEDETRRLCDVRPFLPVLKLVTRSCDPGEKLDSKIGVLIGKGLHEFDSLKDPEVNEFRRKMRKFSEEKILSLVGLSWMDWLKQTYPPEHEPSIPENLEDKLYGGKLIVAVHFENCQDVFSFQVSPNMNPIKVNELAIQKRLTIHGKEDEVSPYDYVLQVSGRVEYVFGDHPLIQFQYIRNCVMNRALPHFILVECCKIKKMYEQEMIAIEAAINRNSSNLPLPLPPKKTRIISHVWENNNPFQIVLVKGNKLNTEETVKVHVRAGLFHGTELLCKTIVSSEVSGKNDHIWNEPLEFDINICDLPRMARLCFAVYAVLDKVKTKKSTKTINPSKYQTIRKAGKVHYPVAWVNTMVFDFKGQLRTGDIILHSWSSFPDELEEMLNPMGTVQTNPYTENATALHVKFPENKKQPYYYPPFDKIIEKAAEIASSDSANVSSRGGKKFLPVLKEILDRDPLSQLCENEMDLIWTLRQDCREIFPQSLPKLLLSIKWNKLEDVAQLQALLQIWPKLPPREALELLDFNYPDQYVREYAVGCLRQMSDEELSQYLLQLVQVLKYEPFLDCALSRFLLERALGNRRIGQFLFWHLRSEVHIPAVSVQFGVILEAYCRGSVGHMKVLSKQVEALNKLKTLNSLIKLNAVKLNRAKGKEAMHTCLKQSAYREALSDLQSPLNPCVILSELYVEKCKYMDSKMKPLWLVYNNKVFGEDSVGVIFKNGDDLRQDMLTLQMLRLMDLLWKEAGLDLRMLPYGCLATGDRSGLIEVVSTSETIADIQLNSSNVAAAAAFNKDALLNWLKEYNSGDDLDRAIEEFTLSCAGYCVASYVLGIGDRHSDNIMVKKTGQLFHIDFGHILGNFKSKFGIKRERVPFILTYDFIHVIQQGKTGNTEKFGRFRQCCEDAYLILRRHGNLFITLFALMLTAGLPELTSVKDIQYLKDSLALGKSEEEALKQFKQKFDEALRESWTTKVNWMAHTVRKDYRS
T1 sequence (P42345 1360-2549 limits assumed): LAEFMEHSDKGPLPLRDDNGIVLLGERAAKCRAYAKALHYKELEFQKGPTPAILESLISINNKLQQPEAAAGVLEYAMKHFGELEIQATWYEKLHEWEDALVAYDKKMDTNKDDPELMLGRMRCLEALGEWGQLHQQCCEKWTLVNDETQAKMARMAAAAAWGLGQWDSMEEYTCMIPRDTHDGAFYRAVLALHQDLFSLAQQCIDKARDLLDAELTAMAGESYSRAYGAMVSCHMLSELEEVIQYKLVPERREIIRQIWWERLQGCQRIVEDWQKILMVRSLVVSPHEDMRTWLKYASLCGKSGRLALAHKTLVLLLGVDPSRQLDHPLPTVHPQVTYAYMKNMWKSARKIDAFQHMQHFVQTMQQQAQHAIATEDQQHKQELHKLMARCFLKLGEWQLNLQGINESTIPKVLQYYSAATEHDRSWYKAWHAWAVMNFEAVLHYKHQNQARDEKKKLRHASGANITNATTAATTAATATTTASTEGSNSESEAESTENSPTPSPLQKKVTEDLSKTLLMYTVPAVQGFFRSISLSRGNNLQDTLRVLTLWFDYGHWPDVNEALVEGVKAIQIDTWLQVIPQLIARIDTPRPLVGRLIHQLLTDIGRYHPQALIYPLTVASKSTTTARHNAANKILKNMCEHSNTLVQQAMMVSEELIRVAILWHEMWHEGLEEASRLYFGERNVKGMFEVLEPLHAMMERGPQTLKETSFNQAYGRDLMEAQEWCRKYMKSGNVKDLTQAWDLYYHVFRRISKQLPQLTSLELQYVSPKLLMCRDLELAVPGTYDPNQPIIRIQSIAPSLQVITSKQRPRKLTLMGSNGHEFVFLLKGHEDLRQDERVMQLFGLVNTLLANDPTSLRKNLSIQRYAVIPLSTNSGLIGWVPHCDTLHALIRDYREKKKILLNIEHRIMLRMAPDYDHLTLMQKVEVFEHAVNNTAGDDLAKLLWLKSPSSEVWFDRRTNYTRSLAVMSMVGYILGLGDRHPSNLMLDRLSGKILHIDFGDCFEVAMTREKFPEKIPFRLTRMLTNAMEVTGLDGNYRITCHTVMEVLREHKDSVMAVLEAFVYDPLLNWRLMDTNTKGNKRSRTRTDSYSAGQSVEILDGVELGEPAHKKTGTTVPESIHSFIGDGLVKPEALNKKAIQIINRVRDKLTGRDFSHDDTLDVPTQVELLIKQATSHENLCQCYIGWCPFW

Row | SMILES | IC50 (mTOR; read-out: EPK_mTOR/IC50) | HT-Perm logPe pH6.8 [1] | IC50 (PI3K beta; read-out: EPK_PI3Kbeta/IC50) | IC50 (mTOR; read-out: mTOR/IC50) | HT-perm/logPe pH6.8 [1] | IC50 (PI3K beta; read-out: PI3Kbeta/IC50)
1 | COCc1ncc(-c2ccc3ncc4c(c3c2)n(-c2ccc(N3CCC3)nc2C)c(=O)n4C)cc1OC [Example 23.6, 1-(6-Azetidin-1-yl-2-methyl-pyridin-3-yl)-8-(5-methoxy-6-methoxymethyl-pyridin-3-yl)-3-methyl-1,3-dihydro-imidazo[4,5-c]quinolin-2-one] | 137 nM | −4.2 | 353 nM | – | – | –
2 | COc1ccc(-c2ccc3ncc4c(c3c2)n(-c2cnccc2C)c(=O)n4C)cn1 [Example 4.3, 8-(6-Methoxy-pyridin-3-yl)-3-methyl-1-(4-methyl-pyridin-3-yl)-1,3-dihydro-imidazo[4,5-c]quinolin-2-one] | – | – | – | 442 nM | −3.7 | 601 nM
3 | CNc1ncc(-c2ccc3ncc4c(c3c2)n(-c2ccc(C(C)(C)O)nc2C)c(=O)n4C)cc1F [Example 31.1, 8-(5-Fluoro-6-methylamino-pyridin-3-yl)-1-[6-(1-hydroxy-1-methyl-ethyl)-2-methyl-pyridin-3-yl]-3-methyl-1,3-dihydro-imidazo[4,5-c]quinolin-2-one] | 21 nM | −4.1 | 217 nM | – | – | –
4 | Cc1cccnc1-n1c(=O)n(C)c2cnc3ccc(-c4cnc(N)c(C(F)(F)F)c4)cc3c21 [Example 3.12, 8-(6-Amino-5-trifluoromethyl-pyridin-3-yl)-3-methyl-1-(3-methyl-pyridin-2-yl)-1,3-dihydro-imidazo[4,5-c]quinolin-2-one] | – | – | – | 389 nM | −4.0 | 109 nM
5 | CNc1ncc(-c2ccc3ncc4c(c3c2)n(-c2ccc(N3CCC(O)C3)nc2C)c(=O)n4C)cn1 (stereo not drawn) [Example 27.2, 1-[6-(3-Hydroxy-pyrrolidin-1-yl)-2-methyl-pyridin-3-yl]-3-methyl-8-(2-methylamino-pyrimidin-5-yl)-1,3-dihydro-imidazo[4,5-c]quinolin-2-one] | 6 nM | −5.1 | 124 nM | – | – | –
